Test results from PMC12488629, “Insecticidal activity of monoamide compounds from Humulus scandens against Spodoptera frugiperda” (Frontiers in Plant Science, 2025).
Converted amounts (≈) assume the structure as drawn.

Key:
[1] = tested on: Acetylcholinesterase (AchE); test: AchE activity in living S. frugiperda after immersion treatment; format: in vivo, Spodoptera frugiperda; details: treatment at LC50 and double the LC50, immersion
Description: The compounds were prepared in solutions at the LC50 and double the LC50, and 4th-instar S. frugiperda larvae were treated using the immersion method. Ten larvae were treated per concentration, with five replicates, and acetone was used as the solvent control. The Acetylcholinesterase (AchE) activity was measured following the operating procedures of the AchE assay kit (Shenggong Biotech Co., Shanghai, China.).

[2] = tested on: 4th instar S. frugiperda larvae; test: Contact toxicity of compounds, immersion method; format: in vivo, Spodoptera frugiperda; details: for Insecticidal activity, contact toxicity (in words): 200 µg/mL; for LC50: Spodoptera frugiperda, Poisoning activity (contact toxicity, immersion), 72 hours, 4th instar larvae
Description: The contact toxicity of the compounds against S. frugiperda was determined via the immersion method ([Li et al., 2023]). The compounds were prepared in solutions with a concentration of 200 μg/mL using acetone as the solvent. Uniformly sized 4th instar S. frugiperda larvae were selected and immersed in the solutions for 3–4 seconds. Each treatment included 10 Petri dishes, with one larva per dish, and the experiment was repeated three times. Acetone was used as the solvent control, and a blank control was also used. The number of dead insects was recorded at 24, 48, and 72 hours, and the corrected mortality rate was calculated.
(§1) Mortality(%)=(Mortality of treatment group-Mortality of control group)/(1-Mortality of control group)×100%
The compound concentrations were prepared as 50, 100, 200, 400, and 800 μg/mL, with the remaining procedures following those in section 2.6.2. The number of dead insects was recorded after 72 hours. The experimental data was processed using Microsoft Excel and SPSS 20.0 software, converting the inhibition rates into corresponding probability values to obtain the toxicity regression equation and calculate the LC50 value.

[3] = tested on: 4th instar S. frugiperda larva; test: Dietary toxicity of compounds, artificial feed film method; format: in vivo, Spodoptera frugiperda; details: for Insecticidal activity, dietary poisoning (in words): 200 µg/mL; for LC50: Spodoptera frugiperda, feed or water, Gastrotoxic activity (dietary toxicity), 72 hours, 4th instar larvae
Description: The dietary toxicity of the compounds against S. frugiperda was determined via the artificial feed film method ([Lu, 2022]). Take 1g of artificial feed and place it in a petri dish, then add 0.1 ml of the liquid medicine (acetone as the solvent and concentration of 200 μg/mL for all compounds) was added to form a uniform film on the surface of the feed. After allowing the feed to dry in a shaded area, one uniformly sized 4th instar S. frugiperda larva was introduced into each dish. Each treatment included 10 Petri dishes, and the experiment was repeated twice. Acetone was used as the solvent control, and a blank control was also used. Mortality was recorded at 24, 48, and 72 hours, and the corrected mortality rate was calculated.
as §1
The compound concentrations used were 50, 100, 200, 400, and 800 μg/mL. The remaining procedures were the same as those described in section 2.6.1. After 72 hours, the number of dead insects was recorded. The experimental data were processed using Microsoft Excel and SPSS 20.0 software, with the inhibition rates converted into corresponding probability values. A toxicity regression equation was derived, and the LC50 value was calculated.

AchE from S. frugiperda = AchE from S. frugiperda (Spodoptera frugiperda, UniProt A0A9R0CUI4); test: Kinetic study of compound inhibition on AchE; format: biochemical; details: for Inhibition type on AchE: Lineweaver-Burk double reciprocal plots; for Reversibility of AchE inhibition: reaction rate vs enzyme concentration
Description: Subsequently, 1.5 mM acetylcholine (ACh) (50 µL) and 0.3 mM DTNB (50 µL) were added, and the time was immediately recorded. The OD values were accurately measured after 60 seconds at 412 nm using a microplate reader, and the reaction rate (ΔA/min) was calculated based on the change in OD value per minute.
The OD values were accurately measured after 60 seconds at 412 nm using a microplate reader, and the reaction rate (ΔA/min) was calculated based on the change in OD value per minute. […] The inhibition constant (Ki) of the compound was calculated by plotting the Dixon plot.

Chain of AchE from S. frugiperda (A0A9R0CUI4 18-694): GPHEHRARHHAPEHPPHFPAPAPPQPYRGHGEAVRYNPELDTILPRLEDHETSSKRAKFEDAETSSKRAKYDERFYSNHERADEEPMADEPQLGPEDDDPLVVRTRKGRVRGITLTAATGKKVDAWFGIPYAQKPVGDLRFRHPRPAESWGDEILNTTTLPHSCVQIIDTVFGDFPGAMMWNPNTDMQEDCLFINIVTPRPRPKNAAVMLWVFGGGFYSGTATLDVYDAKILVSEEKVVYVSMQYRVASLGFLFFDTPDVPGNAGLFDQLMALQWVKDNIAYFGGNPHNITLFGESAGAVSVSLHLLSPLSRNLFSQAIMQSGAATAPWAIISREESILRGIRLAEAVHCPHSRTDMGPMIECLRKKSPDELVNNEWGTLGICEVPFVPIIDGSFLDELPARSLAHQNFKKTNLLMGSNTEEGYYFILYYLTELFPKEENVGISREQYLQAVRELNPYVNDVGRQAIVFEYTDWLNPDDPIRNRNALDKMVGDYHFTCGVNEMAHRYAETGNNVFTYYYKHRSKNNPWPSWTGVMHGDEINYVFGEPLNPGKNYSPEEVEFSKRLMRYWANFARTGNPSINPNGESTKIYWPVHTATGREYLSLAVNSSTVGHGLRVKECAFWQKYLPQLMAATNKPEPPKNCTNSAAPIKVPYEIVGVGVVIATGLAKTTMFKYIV

Compound | AchE activity of the test insects [1] | Insecticidal activity, contact toxicity (in words) [2] | LC50 [2] [µg/mL] | Insecticidal activity, dietary poisoning (in words) [3] | LC50 [3] [µg/mL] | Inhibition type on AchE (AchE from S. frugiperda) | Reversibility of AchE inhibition (AchE from S. frugiperda)
O=C(/C=C/c1ccc(O)cc1)NCCc1ccc(O)cc1 [Compound 1, N-p-coumaroyl tyramine] | significantly decreased | good insecticidal activity | 93 (≈ 328 µM) | good insecticidal activity | 305 (≈ 1080 µM) | competitive inhibitors | reversible inhibitors
COc1cc(/C=C/C(=O)NCCc2ccc(O)cc2)ccc1O [Compound 2, N-trans-feruloyl tyramine] | significantly decreased | good insecticidal activity | 48 (≈ 153 µM) | good insecticidal activity | 89.9 (≈ 287 µM) | competitive inhibitors | reversible inhibitors
